Results reported in US9765037B2, “Compositions and methods for treating toxoplasmosis, cryptosporidiosis, and other apicomplexan protozoan related diseases” (University of Washington Through its Center for …, priority 2010, dated 2017).
≈ marks a conversion by molar mass, not a printed value. Where two headings read alike, the source gives them in different places.

Experiments:
PfCDPK1 = PfCDPK1 (Plasmodium falciparum (isolate 3D7), UniProt P62344); assay: biochemical
PfCDPK4 = PfCDPK4 (Plasmodium falciparum (isolate 3D7), UniProt Q8IBS5); assay: biochemical
[1] = Solubility in buffers of various pH; type: physicochemical; conditions: buffer, pH 6.5, aqueous buffer; read-out: Experimental Solubility pH 6.5
[2] = system: human promyelocytic leukemia (HL-60); assay: Growth inhibition of human cell line HL-60
[3] = system: human lymphocyte (CRL8155); assay: Growth inhibition of human cell line CRL8155
TgCDPK1 = TgCDPK1 (Toxoplasma gondii, UniProt Q9BJF5); type: biochemical
Sequence of TgCDPK1 (Q9BJF5 1-507): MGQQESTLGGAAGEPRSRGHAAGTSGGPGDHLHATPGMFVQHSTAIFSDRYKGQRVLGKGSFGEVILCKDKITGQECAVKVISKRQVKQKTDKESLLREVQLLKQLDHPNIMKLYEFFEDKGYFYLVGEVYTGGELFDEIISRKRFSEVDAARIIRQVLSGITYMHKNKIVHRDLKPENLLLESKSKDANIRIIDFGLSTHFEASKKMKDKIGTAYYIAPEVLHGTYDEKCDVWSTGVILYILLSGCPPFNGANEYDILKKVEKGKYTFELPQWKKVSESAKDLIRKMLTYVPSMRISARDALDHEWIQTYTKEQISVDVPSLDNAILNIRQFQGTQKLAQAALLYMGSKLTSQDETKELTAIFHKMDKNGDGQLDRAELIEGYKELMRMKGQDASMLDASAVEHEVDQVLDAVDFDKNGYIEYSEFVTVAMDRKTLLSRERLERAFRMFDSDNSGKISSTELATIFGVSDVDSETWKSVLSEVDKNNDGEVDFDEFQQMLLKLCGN

CpCDPK1 = CpCDPK1 (Cryptosporidium parvum (strain Iowa II), UniProt A3FQ16); assay: biochemical; type: biochemical
Sequence of CpCDPK1 (A3FQ16 1-538): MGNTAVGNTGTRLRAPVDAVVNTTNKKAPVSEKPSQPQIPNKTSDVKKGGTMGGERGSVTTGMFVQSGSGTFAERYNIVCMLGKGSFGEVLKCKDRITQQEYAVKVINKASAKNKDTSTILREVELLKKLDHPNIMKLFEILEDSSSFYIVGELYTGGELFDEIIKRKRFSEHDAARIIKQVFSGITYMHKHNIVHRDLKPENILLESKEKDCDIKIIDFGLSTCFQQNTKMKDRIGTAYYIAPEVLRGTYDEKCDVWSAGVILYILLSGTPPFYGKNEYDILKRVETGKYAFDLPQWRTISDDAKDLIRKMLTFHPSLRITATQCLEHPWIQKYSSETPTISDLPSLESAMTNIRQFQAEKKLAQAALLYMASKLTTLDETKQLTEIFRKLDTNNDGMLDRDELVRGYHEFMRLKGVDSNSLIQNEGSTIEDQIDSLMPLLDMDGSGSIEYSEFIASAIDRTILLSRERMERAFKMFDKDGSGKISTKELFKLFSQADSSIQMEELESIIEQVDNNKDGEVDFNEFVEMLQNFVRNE

[4] = Blood levels after oral gavage dosing of mice (LC-MS); conditions: mouse, in vivo, po
[5] = Table 8, read-out: IC50 (μM) CpCDPK1

SMILES | EC50 (PfCDPK1) | EC50 (PfCDPK4) | solubility [1] | further results
Cn1ccc2cc(-c3nc(C(C)(C)C)n4ccnc(N)c34)ccc21 [Compound 70, 3-tert-butyl-1-(1-methyl-1H-indol-5-yl)imidazo[1,5-a]pyrazin-8-amine] | 53.8 nM | 83.4 nM | 5 µM (≈ 1.6 µg/mL) | Cell Toxicity HL60, % at 10 μM [2]: 40% at 10 μM; Cell Toxicity CRL8155, % at 10 μM [3]: <30% at 10 μM
Cc1cccc(-c2nn(C(C)(C)C)c3ncnc(N)c23)c1 [Compound 134] | – | – | 19.3 µM (≈ 5.43 µg/mL) | –
COc1ccc2cc(-c3nc(C(C)(C)C)n4ccnc(N)c34)ccc2c1 [Compound 71, 3-tert-butyl-1-(6-methoxynaphthalen-2-yl)imidazo[1,5-a]pyrazin-8-amine] | 67.6 nM | 65.2 nM | 9 µM (≈ 3.12 µg/mL) | Cell Toxicity HL60, % at 10 μM [2]: <30% at 10 μM; Cell Toxicity CRL8155, % at 10 μM [3]: <30% at 10 μM
CC(C)(C)n1nc(-c2ccc3ncccc3c2)c2c(N)ncnc21 [Compound 143] | – | – | 17 µM (≈ 5.41 µg/mL) | –
Cn1ccc2cc(-c3nn(C(C)(C)C)c4ncnc(N)c34)ccc21 [Compound 139] | 1150 nM | 566 nM | 0.69 µM (≈ 0.221 µg/mL) | –
CCOc1ccc2cc(-c3nc(C(C)C)n4ccnc(N)c34)ccc2c1 [Compound 10, 1-(6-ethoxynaphthalen-2-yl)-3-isopropylimidazo[1,5-a]pyrazin-8-amine] | 380 nM | 328 nM | 29 µM (≈ 10 µg/mL) | IC50 (TgCDPK1; read-out: IC50 (μM) TgCDPK1): 0.078 µM; IC50 (CpCDPK1; [5]): 0.0336 µM; AUC [4]: 112 µM·h; Cmax [4]: 26 µM; Tmax [4]: 2.5 h
Cn1ncc2cc(-c3nn(C(C)(C)C)c4ncnc(N)c34)ccc21 [Compound 142] | 294 nM | 94.7 nM | 5.2 µM (≈ 1.67 µg/mL) | –
CCOc1ccc2cc(-c3nn(C(C)(C)C)c4ncnc(N)c34)ccc2c1 [Compound 137] | 2430 nM | 942 nM | 1 µM (≈ 0.361 µg/mL) | –
Nc1ncnc2c1c(-c1ccc3ncccc3c1)nn2CC1CCNCC1 [Compound 125] | 1090 nM | 113 nM | 54 µM (≈ 19.4 µg/mL) | –
Cc1cc(-c2nn(CC3CCNCC3)c3ncnc(N)c23)ccc1-c1ccccc1 [Compound 118] | 511 nM | 512 nM | 40 µM (≈ 15.9 µg/mL) | –
CC(C)(C)n1nc(-c2ccc(NC(=O)C3CCCC3)cc2)c2c(N)ncnc21 [Compound 63, N-(4-(4-amino-1-tert-butyl-1H-pyrazolo[3,4-d]pyrimidin-3-yl)phenyl)cyclopentanecarboxamide] | 11.8 nM | 136 nM | – | IC50 (TgCDPK1; read-out: IC50 (μM) TgCDPK1): 0.0462 µM; IC50 (CpCDPK1; [5]): 0.417 µM
Nc1ncnc2c1c(-c1ccc3cc(O)ccc3c1)nn2CC1CCNCC1 [Compound 119] | 76.9 nM | 7.3 nM | 50 µM (≈ 18.7 µg/mL) | Cell Toxicity HL60, % at 10 μM [2]: <30% at 10 μM;; Cell Toxicity HL60, % at 30 μM [2]: <30% at 30 μM; Cell Toxicity CRL8155, % at 10 μM [3]: <30% at 10 μM; Cell Toxicity CRL8155, % at 30 μM [3]: <30% at 30 μM
CCOc1ccc2cc(-c3nn(C4CCN(C)CC4)c4ncnc(N)c34)ccc2c1 [Compound 148] | – | 39 nM | 56 µM (≈ 22.5 µg/mL) | Cell Toxicity HL60, % at 10 μM [2]: <30% at 10 μM; Cell Toxicity HL60, % at 30 μM [2]: 49% at 30 μM;; Cell Toxicity CRL8155, % at 30 μM [3]: <30% at 30 μM
CCOc1ccc2cc(-c3nn(C4CCNCC4)c4ncnc(N)c34)ccc2c1 [Compound 138] | – | – | 51 µM (≈ 19.8 µg/mL) | –
CCCC(=O)Nc1ccc(-c2nn(C(C)(C)C)c3ncnc(N)c23)cc1 [Compound 61, N-(4-(4-amino-1-tert-butyl-1H-pyrazolo[3,4-d]pyrimidin-3-yl)phenyl)butyramide] | 71.4 nM | 515 nM | – | IC50 (TgCDPK1; read-out: IC50 (μM) TgCDPK1): 0.0684 µM; IC50 (CpCDPK1; [5]): 0.927 µM
COc1ccc(-c2nn(C(C)C)c3ncnc(N)c23)cc1OC [Compound 7k, 3-(3,4-dimethoxyphenyl)-1-isopropyl-1H-pyrazolo[3,4-d]pyrimidin-4-amine] | 1360 nM | > 3000 nM | – | IC50 (TgCDPK1; read-out: TgCDPK1 IC50): 0.037 µM; IC50 (CpCDPK1; [5]): 0.173 µM; IC50 (CpCDPK1; read-out: CpCDPK1 IC50): 0.17 µM
COc1ccc2cc(-c3nn(C(C)(C)C)c4ncnc(N)c34)ccc2c1 [Compound 135] | 668 nM | 137 nM | 3 µM (≈ 1.04 µg/mL) | –
